Experimental data taken from article PMC3591361 (PLoS ONE, 2013).
≈ marks a conversion by molar mass, not a printed value.

How the values were obtained:
[1] = in vivo; parameters: species or system mice; conditions: i.v.; for half-life: female, athymic nude (nu/nu), mouse, iv, read-out: t1/2 (elimination half-life); for plasma concentration at 4 h: free drug administration (combined free drugs in DMSO)
Experimental: Human ovarian cancer SKOV-3 cells (2 x 10^6 in 0.1 ml matrigel/DMEM mixture) were implanted subcutaneously in each flank of 5–6 week-old female athymic nude mice (nu/nu, Charles River, Wilmington, MA). The tumor size was measured using a caliper, and the tumor volume was calculated as ½ × length × width^2.
Once SKOV-3 tumor volumes reached 100–300 mm^3, the mice were randomized into study groups (4 mice per group). […] At 5, 10, 15, 30, 60, 120 and 240 min post injection, whole blood was collected via the retro-orbital bleeding. Normal organs (liver, lung, spleen, kidney and heart) and tumor tissues were harvested at 120 min. […] The HPLC system (Waters, Milford, MA) consisted of a Waters 2795 pump, a Phenomenex (Torrance, CA) C8 column (5 µm, i.d. 4.6 mm × 150 mm) and a Waters 996 photodiode array detector. α-Naphthoflavone was used as an internal standard. […] For tissue homogenate samples, a gradient elution of A: sodium phosphate buffer and B: methanol (0–30 min 46% A, 30.01–40 min 28% A, 40.01–45 min 46% A) was used. The flow rate was 1.5 ml/min at 40°C. The assay methodology was established using blank plasma and tissue homogenate samples spiked with known drug concentrations. […] Representative chromatograms of the pure drugs, an extract of drug-spiked liver tissue, and an extract of blank liver tissue at 227, 333 and 281 nm are shown in Fig. 2.

[2] = free drug; stated without reference; cited from earlier work
[3] = combination therapy; weekly i.v. infusion for paclitaxel, twice-weekly i.v. infusion for 17-AAG; cited from earlier work
[4] = Stability of ICG fluorescence in HBS at 37°C; format: physicochemical
Experimental: To confirm the incorporation of ICG into the micelles, the stability of ICG-labeled micelles was studied at 37°C. Freshly prepared free ICG solution in HBS at the identical concentration was used as a control. At 0, 2, 4, 8, 24 and 48 h, aliquots of the micellar or free ICG solution were analyzed for the fluorescence intensity at 800 nm using Odyssey imaging system (LI-COR Biosciences, Lincoln, NE). All samples were prepared and analyzed in triplicates.

[5] = In vivo whole-body NIR fluorescence imaging in SKOV-3 tumor-bearing mice; conditions: i.v., ICG dose 2 mg/kg, 800 nm channel
Experimental: ICG-labeled micelles were administered to SKOV-3 tumor-bearing mice via the tail vein injection at an ICG dose of 2 mg/kg. Freshly prepared free ICG solution in HBS was i.v. injected at the same dose to the control mice. Immediately following the injection (0 h) and at 1, 2, 4, 6, 24 and 48 h, the mice were anesthetized under a continuous flow of isoflurane/oxygen, and the spectral fluorescence signals of the whole body images (800 nm channel) were obtained using the Odyssey imaging system.

[6] = plasma, combined free drugs in DMSO, 20 mg/kg paclitaxel + 37.5 mg/kg 17-AAG, plasma, mean ± SD, n = 4

Row | decrease in fluorescence emission intensity ([4]; 8 h) | decrease in fluorescence emission intensity ([4]; 48 h) | clearance of fluorescence signal from the circulation/body [5] | Structure (SMILES) | half-life [1, 6] [min] | plasma concentration at 4 h [1] | aqueous solubility [2] [µM] | maximum tolerated dose in cancer patients [3] [mg/m^2] | AUC ([1]; combined free drugs in DMSO, 20 mg/kg paclitaxel + 37.5 mg/kg 17-AAG, plasma, mean ± SD, n = 4) [uM⋅min]
1 | – | – | – | C=CCNC1=C2C[C@@H](C)C[C@H](OC)[C@H](O)[C@@H](C)/C=C(\C)[C@H](OC(N)=O)[C@@H](OC)/C=C\C=C(/C)C(=O)NC(=CC1=O)C2=O [17-AAG, Tanespimycin] | 20.3 ± 2.5 | below the detection limit | 17 (≈ 9.96 µg/mL) | 175 | –
2 | about 50% | over 80% | rapidly cleared from the circulation | CC1(C)C(/C=C/C=C/C=C/C=C2\N(CCCCS(=O)(=O)O)c3ccc4ccccc4c3C2(C)C)=[N+](CCCCS(=O)(=O)[O-])c2ccc3ccccc3c21 [ICG, indocyanine green] | – | – | – | – | –
3 | – | – | – | CC(=O)O[C@H]1C(=O)[C@@]2(C)[C@H]([C@H](OC(=O)c3ccccc3)[C@]3(O)C[C@H](OC(=O)[C@H](O)[C@@H](NC(=O)c4ccccc4)c4ccccc4)C(C)=C1C3(C)C)[C@]1(OC(C)=O)CO[C@@H]1C[C@@H]2O [paclitaxel, Paclitaxel] | ~40 | below the detection limit | – | 80 | 415.3±56.7
